One assay deals with mesothelioma organoids. Briefly: Biomarker-driven drug study on patient organoids (MTS, Annexin V/Ki67 IHC, H&E). The settings on record: 0.1 μM, 1 μM, 10 μM; 96 hours. Format: cell-based, human. Here is the method:
(§1) 5 μm thick organoid sections were created from paraffin-embedded constructs, and then deparaffinized for staining. IHC was used to visualize biomarkers cytokeratin 5/6 (CK5/6), calretinin, and thrombomodulin. Blocking was performed by incubation under Dako Protein Block for 15 minutes. Primary antibodies CK5/6 (Abcam, ab17133, raised in mouse) and calretinin (Abcam, ab702, raised in rabbit) or CK5/6 and thrombomodulin (Abcam, ab109189, raised in rabbit) were applied to the sections on the slides at a 1:200 dilution in Dako Antibody Diluent and incubated at room temperature for 1 hour. Next, secondary Alexa Fluor 488 or Alexa Fluor 594 antibodies with appropriate species reactivity were applied to all samples at 1:200 in Dako Antibody Diluent and left at room temperature for 1 hour (anti-mouse Alexa Fluor 488 and anti-rabbit Alexa Fluor 594, Life Technologies, Carlsbad, Calif., A-11070). Sections were then incubated with Dapi for 5 minutes prior to coverslipping. […] Fluorescence images were taken using a Leica DM400B Compound Microscope and overlaid for analysis.
(§2) Tumor constructs were biofabricated once more, after which they were maintained for 3 days prior to drug screening. […] Drug effects were quantified by MTS assays and immunohistochemistry. MTS assays (CellTiter 96 One Solution Reagent Promega, Madison, Wis.) determined relative cell number by quantifying mitochondrial metabolism. Absorbance values were determined on a Molecular Devices SpectrumMax M5 (Molecular Devices) tunable plate reader system at a wavelength of 490 nm.
(§3) Immunohistochemisty staining was performed using biomarkers Annexin V and Ki67 on 5 μm thick organoid sections. […] Fluorescence images were taken using a Leica DM400B Compound Microscope, images were taken of sections next to each other in GFP for Annexin V and Ki67 and overlaid for analysis; Annexin V images were colored red (medium grey in black and white images) and Ki67 images were colored green (light grey in black and white images).

For another assay, the system named is HCT116 cells. The settings on record: literature reference 31; cited from earlier work.
The subject of the next assay is HCT116 organoids. Briefly: Biomarker-driven drug study on control organoids (MTS, Annexin V/Ki67 IHC, H&E). Format: cell-based. The settings on record: 0.1 μM, 1 μM, 10 μM; 96 hours. Here is the method: as §1, §2, §3

SMILES strings stand for the structures. “Also recorded” adds a separate entry of the source.

Turning to `Nc1nccc2c1ncn2[C@@H]1C=C(CO)[C@@H](O)[C@H]1O` [DZNep, 3-deazaneplanocin A], in the assay with mesothelioma organoids, the “Annexin V and Ki67 immunohistochemistry” value was “Annexin V appears to increase in mesothelioma with increase in DZNep concentration; also recorded: increasing trend in annexin V expression; also recorded: higher ratios of Annexin V to Ki67”; the “Hematoxylin and eosin staining, cell morphology” value was “ghost cells and those without nuclei; also recorded: loss of normal morphology and appearance of ghost cells with no nuclei”; the “proliferation / mitochondrial metabolism (MTS assay)” value is reported as “significant decrease in mesothelioma proliferation; also recorded: decrease in mitochondrial metabolism; also recorded: decreased mitochondrial metabolism”. In addition, in the assay on HCT116 cells, the “effect on HCT116 cells upon treatment” value is “cell cycle arrest, but not necessarily significant levels of cell death”. In the assay with HCT116 organoids, the “Annexin V and Ki67 immunohistochemistry” value is on record as “minimal change in proliferation”; the “Hematoxylin and eosin staining, cell morphology” value was “not present in any HCT116 treatments; also recorded: do not show this dose dependent change”; the “proliferation / mitochondrial metabolism (MTS assay)” value is “no significant decrease in HCT116 proliferation; also recorded: little effect; also recorded: do not appear to respond negatively”.

The record behind these values is patent publication US20190187129A1, “CANCER MODELING PLATFORMS AND METHODS OF USING THE SAME” (Wake Forest University Health Sciences, priority 2016, published 2019).
